# Like-named read-outs stand apart in the source and are kept apart here.
# Experiments:
# human recombinant BACE1 = human recombinant BACE1 (Homo sapiens (Human), UniProt P56817); assay: In vitro enzymatic BACE1 FRET assay; format: biochemical; conditions: read-out: IC50 IP (μM) BACE1 enzyme
# Method in brief: (§1)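 Ni-NTA-purified recombinant protease incubated with compound; reaction started with 50 nM FRET peptide substrate (fluorophore/quencher flanking the BACE cleavage site) and run 1 h. Stopped with Tris buffer raising pH to neutral; fluorescence read at ex 488/em 590 nm.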
# human recombinant BACE2 = human recombinant BACE2 (Homo sapiens (Human), UniProt Q9Y5Z0); assay: In vitro enzymatic BACE2 FRET assay; format: biochemical; conditions: read-out: IC50 IP (μM) BACE2 enzyme
# Method in brief: as §1
# [1] = test system: Aβ40 in conditioned medium of cells stably expressing Amyloid Precursor Protein (APP); assay: In vitro BACE-1 cell-based assay (Aβ40 sandwich ELISA); conditions: read-out: IC50 IP (μM) BACE1 cell
# Method in brief: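 APP-expressing cells treated 24 h at 37 °C with compound in 10-point dose response (top 100 μM or 10 μM, 0.1% DMSO final). Secreted Aβ40 in conditioned medium quantified by sandwich ELISA (pAb40 capture, biotinylated 6E10 detection, time-resolved europium fluorescence); IC50 from percent inhibition versus concentration.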
# Recombinant Cat D = Recombinant Cat D (Homo sapiens (Human), UniProt P07339); assay: In vitro enzymatic Cathepsin D (Cat D) FRET assay; format: biochemical; conditions: read-out: IC50 IP (μM) CatD
# Method in brief: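 Cleavage of a 20 nM FRET peptide by CHO-derived Cat D over 1 h at pH 3.5 (citrate buffer with CHAPS, 10% DMSO final). Endpoint fluorescence is read after Tris quench.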
# human recombinant BACE2, sequence (Q9Y5Z0 63-518): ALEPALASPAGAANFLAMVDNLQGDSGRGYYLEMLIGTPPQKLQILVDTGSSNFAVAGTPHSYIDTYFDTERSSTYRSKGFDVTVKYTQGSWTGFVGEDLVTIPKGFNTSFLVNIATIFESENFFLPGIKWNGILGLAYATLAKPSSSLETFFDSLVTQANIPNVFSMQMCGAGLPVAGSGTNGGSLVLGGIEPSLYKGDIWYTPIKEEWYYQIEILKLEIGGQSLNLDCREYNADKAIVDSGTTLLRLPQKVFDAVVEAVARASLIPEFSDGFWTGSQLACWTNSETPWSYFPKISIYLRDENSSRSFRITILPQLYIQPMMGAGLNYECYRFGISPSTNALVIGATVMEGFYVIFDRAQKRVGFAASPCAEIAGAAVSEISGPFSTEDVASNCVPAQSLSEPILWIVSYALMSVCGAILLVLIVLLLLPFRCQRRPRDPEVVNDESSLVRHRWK
# Recombinant Cat D, sequence (P07339 65-412): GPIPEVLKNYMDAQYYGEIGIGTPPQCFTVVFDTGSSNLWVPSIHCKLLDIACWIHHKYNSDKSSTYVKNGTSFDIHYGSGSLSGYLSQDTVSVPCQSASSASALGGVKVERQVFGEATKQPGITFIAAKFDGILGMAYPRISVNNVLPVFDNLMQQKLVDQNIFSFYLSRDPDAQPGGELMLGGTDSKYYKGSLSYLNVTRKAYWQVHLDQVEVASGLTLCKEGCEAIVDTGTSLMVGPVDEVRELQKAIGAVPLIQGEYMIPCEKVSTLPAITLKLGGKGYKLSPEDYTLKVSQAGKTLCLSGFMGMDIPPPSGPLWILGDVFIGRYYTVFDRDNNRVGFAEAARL
# human recombinant BACE1, sequence (P56817 46-501): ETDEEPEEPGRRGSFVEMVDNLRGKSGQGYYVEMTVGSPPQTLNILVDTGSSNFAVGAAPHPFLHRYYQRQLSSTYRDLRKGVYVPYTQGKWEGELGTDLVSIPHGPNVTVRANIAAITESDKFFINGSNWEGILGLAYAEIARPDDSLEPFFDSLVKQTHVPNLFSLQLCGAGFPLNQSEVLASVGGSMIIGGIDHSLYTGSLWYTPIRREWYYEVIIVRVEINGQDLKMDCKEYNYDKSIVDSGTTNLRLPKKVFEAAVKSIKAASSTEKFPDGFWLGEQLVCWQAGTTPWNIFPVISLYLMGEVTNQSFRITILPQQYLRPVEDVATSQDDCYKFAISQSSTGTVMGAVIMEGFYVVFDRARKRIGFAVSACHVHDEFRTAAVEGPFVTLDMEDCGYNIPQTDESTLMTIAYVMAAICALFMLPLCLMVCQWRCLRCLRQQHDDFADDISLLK
IC50 (human recombinant BACE1),IC50 (human recombinant BACE2),IC50 [1],IC50 (Recombinant Cat D),IC50 (human recombinant BACE1; BACE1 FRET enzyme assay),IC50 (human recombinant BACE2; BACE2 FRET enzyme assay),IC50 ([1]; BACE1 cell-based assay),IC50 (Recombinant Cat D; Cathepsin D FRET enzyme assay),SMILES
0.00207 µM,0.0102 µM,0.00624 µM,872 µM,,,,,"C#C[C@H](C)Oc1cnc2c(Nc3cc(F)c(F)c([C@@]4(C)N=C(N)S[C@@]5(C(=O)N6CCCC6)C[C@H]54)c3)nccc2n1 [Example 937, N-(3-((1S,5S,6S)-3-amino-5-methyl-1-(1-pyrrolidinylcarbonyl)-2-thia-4-azabicyclo[4.1.0]hept-3-en-5-yl)-4,5-difluorophenyl)-2-(((1S)-1-methyl-2-propyn-1-yl)oxy)pyrido[3,4-b]pyrazin-5-amine]"
0.000719 µM,< 0.00203 µM,0.0149 µM,846 µM,,,,,"C[C@]1(c2cc(NC(=O)c3ccc(Cl)cn3)cc(F)c2F)N=C(N)S[C@@]2(S(C)(=O)=O)C[C@H]21 [Example 742, N-(3-((1R,5S,6S)-3-amino-5-methyl-1-(methylsulfonyl)-2-thia-4-azabicyclo[4.1.0]hept-3-en-5-yl)-4,5-difluorophenyl)-5-chloro-2-pyridinecarboxamide]"
,,,,0.0198 µM,0.0136 µM,0.0317 µM,295 µM,"C[C@]1(c2cc(Nc3ncnc4cc(Cl)cnc34)cc(F)c2F)N=C(N)S[C@H]2C[C@H]21 [Example 34, N-(3-((1S,5S,6S)-3-amino-5-methyl-2-thia-4-azabicyclo[4.1.0]hept-3-en-5-yl)-4,5-difluorophenyl)-7-chloropyrido[3,2-d]pyrimidin-4-amine]"
0.00245 µM,0.0588 µM,0.0841 µM,336 µM,,,,,"C[C@]1(c2cc(Nc3ncc(F)c4cc(OCc5ncco5)cnc34)cc(F)c2F)N=C(N)S[C@@]2(C(F)F)C[C@@H]12 [Example 949, N-(3-((1S,5S,6S)-3-amino-1-(difluoromethyl)-5-methyl-2-thia-4-azabicyclo[4.1.0]hept-3-en-5-yl)-4,5-difluorophenyl)-5-fluoro-3-(1,3-oxazol-2-ylmethoxy)-1,7-naphthyridin-8-amine]"

# The remaining lines, values behind:
SMILES,IC50 (human recombinant BACE1),IC50 (human recombinant BACE2),IC50 [1],IC50 (Recombinant Cat D),IC50 (human recombinant BACE1; BACE1 FRET enzyme assay),IC50 (human recombinant BACE2; BACE2 FRET enzyme assay),IC50 ([1]; BACE1 cell-based assay),IC50 (Recombinant Cat D; Cathepsin D FRET enzyme assay)
"COC[C@]12C[C@H]1[C@@](C)(c1cc(NC(=O)c3cnc(OCC(C)C)cn3)cc(F)c1F)N=C(N)S2 [Example 1028, N-(3-((1S,5S,6S)-3-amino-1-(methoxymethyl)-5-methyl-2-thia-4-azabicyclo[4.1.0]hept-3-en-5-yl)-4,5-difluorophenyl)-5-(2-methylpropoxy)-2-pyrazinecarboxamide]",0.00195 µM,0.226 µM,0.0293 µM,135 µM,,,,
"C[C@]1(c2cc(Nc3nccc4cc(OCc5ncco5)cnc34)cnc2F)N=C(N)S[C@]2(CO)[C@H]1C2(F)F [Example 669, ((1S,5S,6R)-3-amino-7,7-difluoro-5-(2-fluoro-5-((3-(1,3-oxazol-2-ylmethoxy)-1,7-naphthyridin-8-yl)amino)-3-pyridinyl)-5-methyl-2-thia-4-azabicyclo[4.1.0]hept-3-en-1-yl)methanol]",0.00119 µM,0.036 µM,0.00593 µM,1140 µM,,,,
"C#CCOc1cnc2c(Nc3cnc(F)c([C@@]4(C)N=C(N)S[C@@]5(COC)C[C@H]54)c3)nccc2n1 [Example 848, N-(5-((1S,5S,6S)-3-amino-1-(methoxymethyl)-5-methyl-2-thia-4-azabicyclo[4.1.0]hept-3-en-5-yl)-6-fluoro-3-pyridinyl)-2-(2-propyn-1-yloxy)pyrido[3,4-b]pyrazin-5-amine]",0.00136 µM,0.0335 µM,0.00134 µM,773 µM,,,,
"COC[C@]12C[C@H]1[C@@](C)(c1cc(NC(=O)c3cnc(OCC(F)(F)C(F)F)cn3)cc(F)c1F)N=C(N)S2 [Example 734, N-(3-((1S,5S,6S)-3-amino-1-(methoxymethyl)-5-methyl-2-thia-4-azabicyclo[4.1.0]hept-3-en-5-yl)-4,5-difluorophenyl)-5-(2,2,3,3-tetrafluoropropoxy)-2-pyrazinecarboxamide]",0.00173 µM,0.188 µM,0.017 µM,2110 µM,,,,

# From patent US20160046618A1, “Cyclopropyl Fused Thiazin-2-Amine Compounds as Beta-Secretase Inhibitors and Methods of Use” (AMGEN INC., priority 2014, published 2016)
